Laboratory results: paper PMC11694514, “Structural and kinetic characterization of DUSP5 with a Di-phosphorylated tripeptide substrate from the ERK activation loop” (Frontiers in chemical biology, 2024)
Where two headings read alike, the source gives them in different places. One block for each compound: values may come before it. Where a SMILES comes first, the peptide text is derived from it. [ ]: non-standard residue; d: D form. pY = N[C@@H](Cc1ccc(OP(=O)(O)O)cc1)C(=O)O; pT = C[C@@H](OP(=O)(O)O)[C@H](N)C(=O)O

Assays:
DUSP5pdWT [1] = target: T1, DUSP5pdWT (Homo sapiens, UniProt Q16690); experiment: Steady state inhibition of pNPP hydrolysis by tripeptides; format: biochemical; parameters: The Dusp5 phosphatase domain gene, both wild type (WT; DUSP5pdWT; used for kinetic studies); inferred from the Nickel NTA purification), with additional N-terminal amino acids (N); made in house; conditions: for Ki: peptide as inhibitor of pNPP hydrolysis
T1 sequence (Q16690 178-319 limits assumed): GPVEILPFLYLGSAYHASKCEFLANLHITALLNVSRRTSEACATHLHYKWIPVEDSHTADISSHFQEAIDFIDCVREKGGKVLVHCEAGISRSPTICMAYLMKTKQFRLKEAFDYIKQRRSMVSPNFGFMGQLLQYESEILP

[2] = target: Acid phosphatases (Bovine liver); parameters: method as in Lawrence and Van Etten (1981); conditions: pH 5.5, substrate PNPP, Sodium acetate, ref Lawrence and Van Etten (1981); cited from earlier work
DUSP5pdWT [3] = target: T1, DUSP5pdWT; experiment: Steady state inhibition of pNPP hydrolysis by vanadate and phosphate; conditions: for inhibition pattern / Ki (Kis): pNPP substrate; for Ki (Kis): Tris pH 7.5, 0.045 mM DTT, global kinetics analysis
Method: All assays were carried out using pNPP as a substrate in the presence of DTT using a microplate reader and a total volume of 100 μL. Each assay contained an enzyme concentration of approximately 0.072 mg/mL (appropriately 3.13 μM DUSP5pdWT) which was left in a stock solution at about 1 h at 4°C before use. Each assay consisted of a reaction mixture in 100 mM tris-hydrochloride buffer containing 100 mM NaCl and 5.0 mM magnesium chloride (MgCl2) at pH 7.5. […] The kinetic parameters were measured in the presence of 0.045 mM DTT in the assay solution and the assay was started with the addition of pNPP.
For phosphate inhibition studies, the phosphate inhibitor concentrations used were 0.5; 1; 2; 5; 10 mM. […] The kinetic runs were repeated three times and the data were initial processed using excel and the global kinetics analysis was performed using GraphPad Prism 10.1.2. The errors provided in the analysis were calculated by the program.

[4] = target: SHP-1 (domain containing protein tyrosine phosphatase-1); conditions: pH 7.5; substrate PNPP; Tris; ref Heo et al. (2002); cited from earlier work
[5] = target: Human prostatic acid phosphatase; conditions: pH 5.0; substrate PNPP; Sodium acetate; ref Zhou et al. (1993); cited from earlier work
PTPase = conditions: substrate PNPP, ref Deng et al. (2002), cited from earlier work
[6] = target: Phosphotyrosyl protein phosphatases; conditions: pH 5.0; substrate PNPP; Sodium acetate; ref Zhou et al. (1993); cited from earlier work
[7] = target: Bacteriophage λ protein phosphatase; conditions: pH 7.8; substrate PNPP; Tris; ref Reiter et al. (2001); cited from earlier work
PTP1B = conditions: cited from earlier work
[8] = target: Bovine Low Molecular Weight Phosphotyrosyl Phosphatase; parameters: method as in Zhang et al. (1997); conditions: Bovine heart, substrate PNPP, Sodium acetate, ref Zhang et al. (1997), cited from earlier work
DUSPpdWT = target: T2, DUSPpdWT (Homo sapiens, UniProt Q16690); experiment: 31P NMR monitoring of tripeptide hydrolysis; format: biochemical
T2 construct: The Dusp5 phosphatase domain gene, both wild type (WT; DUSP5pdWT; used for kinetic studies); inferred from the Nickel NTA purification), with additional N-terminal amino acids (N); made in house
T2 sequence (Q16690 178-319 limits assumed): T1 sequence (Q16690 178-319 limits assumed)
Method: Hydrolysis of the pThr-Glu-pTyr peptide was monitored using ^31P 1D NMR and a Varian 500 MHz spectrometer equipped with a broad band probe. 1 mM of peptide was incubated with 100 μM of DUSPpdWT protein for 3 min, and spectra were collected at 25°C. See Figure 2 and, for a time course, Supplementary Figure S3.

[9] = Ki, global competitive model, Lineweaver-Burk fit (equation S2)
[10] = Ki, global competitive model, Michaelis-Menten fit (Eq. 2)

- Ki (DUSP5pdWT [1]; global competitive model, Lineweaver-Burk fit (equation S2), read-out: Ki): 21.9 mM
- Ki (DUSP5pdWT [1]; global competitive model, Michaelis-Menten fit (Eq. 2), read-out: Ki): 15.8 mM
Compound: CC(=O)N[C@H](C(=O)N[C@@H](CCC(=O)O)C(=O)N[C@@H](Cc1ccc(O)cc1)C(N)=O)[C@@H](C)OP(=O)(O)O [pT-E-Y] (Ac-[pT]-Glu-Tyr-NH2)

Compound: sodium vanadate
- Ki [2]: 2 mM
- inhibition pattern (DUSP5pdWT [3]): competitive inhibitors
- Ki [4]: 0.0093 mM
- Ki [5]: 0.036 mM
- Ki (PTPase; pH 5.5, Acetate): 0.0011 mM
- Ki (PTPase; pH 7.5, Tris): 0.0012 mM
- Ki [6]: 0.024 mM
- Ki [7]: 0.0007 mM
- Ki (PTP1B; pH 5.5, substrate PNPP, Tris, ref Heo et al. (2002)): 0.41 mM
- Ki (PTP1B; pH 7.3, substrate FDP, HEPES, ref Huyer et al. (1997)): 0.00038 mM
- Ki (PTP1B; pH 7.5, substrate PNPP, Tris, ref Heo et al. (2002)): 0.0056 mM
- Ki ([8]; pH 5.0): 0.0054 mM
- Ki ([8]; pH 7.5): 0.001 mM

Compound: CC(=O)N[C@H](C(=O)N[C@@H](CCC(=O)O)C(=O)N[C@@H](Cc1ccc(OP(=O)(O)O)cc1)C(N)=O)[C@@H](C)O [T-E-pY] (Ac-Thr-Glu-[pY]-NH2)
- Ki (DUSP5pdWT [1]; [9]): 4.8 mM
- Ki (DUSP5pdWT [1]; [10]): 4.93 mM

Compound: CC(=O)N[C@H](C(=O)N[C@@H](CCC(=O)O)C(=O)N[C@@H](Cc1ccc(OP(=O)(O)O)cc1)C(N)=O)[C@@H](C)OP(=O)(O)O [pT-E-pY, Ac-pThr-Glu-pTyr-NH2] (Ac-[pT]-Glu-[pY]-NH2)
- conversion to orthophosphate (both phosphates cleaved) (DUSPpdWT; 1 mM peptide, 100 μM DUSP5pdWT, 3 min, 25°C): 100%
- pT and pY peptides remaining (each) (DUSPpdWT; 10-fold lower enzyme concentration, even after prolonged incubation): about 25%
- conversion (DUSPpdWT; 10-fold lower enzyme concentration, first timepoint after 3 min incubation): about 50%
- Ki (DUSP5pdWT [1]; [9]): 1.22 mM
- Ki (DUSP5pdWT [1]; [10]): 1.67 mM
- kcat (DUSP5pdWT [1]; pNPP substrate, peptide as inhibitor, global competitive model, Michaelis-Menten fit (Eq. 2)): 2.03 ± 0.07 × 10^−2 s^−1
- fold more potent binder (DUSP5pdWT [1]; relative to the pY monophosphorylated peptide): roughly 3 x

- inhibition pattern (DUSP5pdWT [3]): competitive inhibitors
- Ki (Kis) (DUSP5pdWT [3]; listed as Phosphate): 17.3 mM
- Ki (Kis) (DUSP5pdWT [3]; listed as sodium phosphate): 17.32 mM
- inhibition pattern (DUSP5pdWT [3]; listed as Phosphate): competitive inhibition pattern
Compound: O=P(O)(O)O [phosphate, sodium phosphate]
- Ki [2]: 3 mM
- Ki (PTP1B; pH 7.0, substrate PNPP, 3,3-Dimethylglutarate, ref Zhang, Y.L. and Zhang, Z.Y. (1998)): 17 mM
- Ki ([8]; pH 5.0): 2.2 ± 0.0004 mM
- Ki ([8]; pH 7.5): 6.2 mM

Compound: O=[N+]([O-])c1ccc(OP(=O)(O)O)cc1 [pNPP, p-nitrophenol phosphate]
- Km (DUSP5pdWT [3]; pH 7.5): 8.02 mM
